Consider 27 compounds from patent US20050209278A1, “Piperidinyl- and piperazinyl-sulfonylmethyl hydroxamic acids and their use as protease inhibitors” (priority 2002, published 2005).

Each structure is given as a SMILES string.

Common to all, as to format: biochemical
Test [1] deals with T1, MMP-1 (Homo sapiens, UniProt P03956).
T1 construct: made in house; host or cells: MMP-1-transfected HT-1080 cells (spent media)
T1 sequence (P03956 100-469): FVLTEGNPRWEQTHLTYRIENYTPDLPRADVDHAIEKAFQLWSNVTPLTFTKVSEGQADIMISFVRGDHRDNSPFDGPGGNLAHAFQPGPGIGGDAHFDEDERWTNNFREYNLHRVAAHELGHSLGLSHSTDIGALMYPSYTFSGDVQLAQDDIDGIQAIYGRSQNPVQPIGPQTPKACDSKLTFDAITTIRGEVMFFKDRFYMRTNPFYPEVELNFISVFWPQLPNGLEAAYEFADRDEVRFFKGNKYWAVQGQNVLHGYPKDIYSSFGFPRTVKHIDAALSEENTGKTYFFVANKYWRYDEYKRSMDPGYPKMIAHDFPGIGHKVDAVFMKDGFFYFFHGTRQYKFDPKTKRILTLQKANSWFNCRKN
Description: MMP-1 inhibition (in vitro Ki). To be noted: Table 9; read-out: MMP-1 Ki (IC-50).

Test [2] has as its target T2, MMP-2 (Homo sapiens, UniProt P08253).
T2 construct: made in house; host or cells: MMP-2-transfected p2AHT2 cells
T2 sequence (P08253 110-660): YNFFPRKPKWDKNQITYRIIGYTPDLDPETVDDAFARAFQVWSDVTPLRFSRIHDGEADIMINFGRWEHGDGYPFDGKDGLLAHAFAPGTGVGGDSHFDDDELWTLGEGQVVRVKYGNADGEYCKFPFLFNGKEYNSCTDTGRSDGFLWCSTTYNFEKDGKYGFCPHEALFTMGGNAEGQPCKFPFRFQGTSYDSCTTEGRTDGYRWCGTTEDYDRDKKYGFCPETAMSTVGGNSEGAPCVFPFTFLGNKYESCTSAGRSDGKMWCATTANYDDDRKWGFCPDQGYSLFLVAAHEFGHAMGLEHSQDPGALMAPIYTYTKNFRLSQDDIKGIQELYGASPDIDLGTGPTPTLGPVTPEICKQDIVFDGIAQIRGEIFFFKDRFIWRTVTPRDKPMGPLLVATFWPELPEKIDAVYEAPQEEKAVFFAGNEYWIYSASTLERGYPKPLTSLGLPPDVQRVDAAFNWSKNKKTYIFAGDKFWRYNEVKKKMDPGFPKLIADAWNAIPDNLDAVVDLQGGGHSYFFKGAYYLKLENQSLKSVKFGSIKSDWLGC
Description: MMP-2 inhibition (in vitro Ki). As to conditions: Table 9; read-out: MMP-2 Ki (IC-50).

Test [3] concerns the target T3, MMP-9 (Homo sapiens, UniProt P14780).
T3 construct: made in house; host or cells: MMP-9-transfected HT1080 cells (spent media)
Description: MMP-9 inhibition (in vitro Ki). To be noted: Table 9; read-out: MMP-9 Ki (IC-50).

Test [4] concerns the target T4, MMP-13 (Homo sapiens, UniProt P45452).
T4 construct: made in house; host or cells: baculovirus / insect cells
Description: MMP-13 inhibition (in vitro Ki). As to conditions: Table 9; read-out: MMP-13 Ki (IC-50).

Test [5] concerns the target T5, MMP-14 (Homo sapiens, UniProt P50281).
T5 construct: The catalytic domain enzyme was expressed in E. coli inclusion bodies, solubilized in urea; made in house
Description: MMP-14 inhibition (in vitro Ki). As to conditions: Table 9; read-out: MMP-14 Ki (IC-50).

T3 sequence (P14780 107-707 limits assumed): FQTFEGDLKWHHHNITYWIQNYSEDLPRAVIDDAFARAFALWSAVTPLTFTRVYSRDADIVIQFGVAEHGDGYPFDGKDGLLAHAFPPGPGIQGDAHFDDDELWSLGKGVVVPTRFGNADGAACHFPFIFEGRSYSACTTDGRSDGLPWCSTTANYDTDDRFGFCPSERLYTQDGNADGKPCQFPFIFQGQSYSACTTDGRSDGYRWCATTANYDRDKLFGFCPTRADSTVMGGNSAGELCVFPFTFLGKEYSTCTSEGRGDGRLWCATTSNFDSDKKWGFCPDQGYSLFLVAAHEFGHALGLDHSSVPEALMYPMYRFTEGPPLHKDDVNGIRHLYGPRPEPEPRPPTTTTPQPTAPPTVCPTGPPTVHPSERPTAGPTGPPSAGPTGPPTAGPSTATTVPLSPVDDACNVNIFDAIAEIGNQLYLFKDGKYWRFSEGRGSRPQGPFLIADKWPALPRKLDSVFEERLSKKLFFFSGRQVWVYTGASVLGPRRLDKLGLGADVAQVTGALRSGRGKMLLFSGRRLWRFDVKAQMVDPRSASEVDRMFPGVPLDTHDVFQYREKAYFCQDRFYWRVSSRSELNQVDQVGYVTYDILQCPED

Regarding `CN(C(=O)CCCC1CCN(S(=O)(=O)C2(C(=O)NO)CCOCC2)CC1)c1ccc(F)cc1` [Example A146], the inhibition constant (Ki) (usually a dissociation constant, usually derived from enzyme kinetics or from competition with a known ligand) in test [1] was more than 10000 nM; in test [2], 344 nM; in test [3] it was 262 nM; in test [4], 31.8 nM; in test [5] it was more than 10000 nM.
On to `CCN(C(=O)CCCC1CCN(S(=O)(=O)C2(C(=O)NO)CCOCC2)CC1)c1ccccc1` [Example A147], for which the inhibition constant (Ki) is more than 10000 nM in test [1]; 76.1 nM in test [2]; 42.9 nM in test [3]; 44.8 nM in test [4]; more than 10000 nM in test [5].
Take `COC(=O)CCCC1CCN(S(=O)(=O)C2(C(=O)NO)CCOCC2)CC1` [Example A148]: the Ki in test [1] was 2710 nM; in test [2], 6.67 nM; in test [3], 3.79 nM; in test [4] it was 5.21 nM; in test [5], 1730 nM.
For the compound `COCCOc1ccc(C2CCN(S(=O)(=O)C3(C(=O)NO)CCOCC3)CC2)nc1` [Example A149], the Ki in test [1] was more than 10000 nM; in test [2], 4.42 nM; in test [3], 7.04 nM; in test [4], 2.63 nM; in test [5], 6550 nM.
In the case of `O=C(CCCCN1CCN(S(=O)(=O)C2(C(=O)NO)CCOCC2)CC1)c1ccc(OC(F)(F)F)cc1` [Example A150], the inhibitory constant (Ki) in test [1] is more than 10000 nM; in test [2], 243 nM; in test [3], 1030 nM; in test [4] it was 19.8 nM; in test [5] it was more than 10000 nM.
For the compound `O=C(NO)C1(S(=O)(=O)N2CCC(c3cnc(OCC4CC4)cn3)CC2)CCOCC1` [Example A151], the inhibitory constant (Ki) in test [1] is more than 10000 nM; in test [2], 1.34 nM; in test [3] it was 0.72 nM; in test [4], 1.53 nM; in test [5], 3100 nM.
Take `CC(F)(F)Cc1ccc(C2CCN(S(=O)(=O)C3(C(=O)NO)CCOCC3)CC2)nc1` [Example A152]: the inhibition constant Ki is more than 10000 nM in test [1]; 2.36 nM in test [2]; 9.85 nM in test [3]; 5.25 nM in test [4]; 4330 nM in test [5].
The matching figures for `O=C(NO)C1(S(=O)(=O)N2CCC(OCCCn3nnc(-c4ccc(OC(F)(F)F)cc4)n3)CC2)CCOCC1` [Example A153]: more than 10000 nM, 175 nM, 1910 nM, 0.37 nM and more than 10000 nM.
With `CCCC(F)(F)c1ccc(C2CCN(S(=O)(=O)C3(C(=O)NO)CCOCC3)CC2)nc1` [Example A156], the Ki in test [1] is 4550 nM; in test [2], 3.14 nM; in test [3], 9.5 nM; in test [4] it was 1.57 nM; in test [5] it was more than 10000 nM.
The corresponding values for `O=C(NO)C1(S(=O)(=O)N2CCC(F)(c3ccc(CCCC(F)(F)F)cn3)CC2)CCOCC1` [Example A157] are more than 10000 nM, 36.5 nM, 2.94 nM, 2.54 nM and more than 10000 nM.
`O=C(NO)C1(S(=O)(=O)N2CCC(c3ccc(CCC(F)(F)C(F)(F)F)cn3)CC2)CCN(c2ccc(Cl)cc2)CC1` [Example A158]: the Ki in test [1] was more than 10000 nM; in test [2] it was 14.6 nM; in test [3], 13.4 nM; in test [4], 8.98 nM; in test [5] it was more than 10000 nM.
`CCCC(=O)c1ccc(C2CCN(S(=O)(=O)C3(C(=O)NO)CCOCC3)CC2)nc1` [Example A159]: the Ki is 1840 nM in test [1]; 2.65 nM in test [2]; 3.99 nM in test [3]; 1.91 nM in test [4]; 8580 nM in test [5].
The matching figures for `O=C(NO)C1(S(=O)(=O)N2CCC(CCCc3nc(-c4ccc(OC(F)(F)F)cc4)no3)CC2)CCOCC1` [Example A160]: more than 10000 nM, 529 nM, 613 nM, 40.9 nM and more than 10000 nM.
The matching figures for `O=C(NO)C1(S(=O)(=O)N2CCC(c3ccc(CCC(F)F)cn3)CC2)CCOCC1` [Example A161]: 2970 nM, 0.513 nM, 0.223 nM, 0.474 nM and 1670 nM.
The matching figures for `O=C(NO)C1(S(=O)(=O)N2CCC(c3ccc(COCC4CC4)cn3)CC2)CCOCC1` [Example A162]: 4510 nM, 1.15 nM, 0.194 nM, 0.301 nM and 2290 nM.
`CN(C(=O)CCCCC1CCN(S(=O)(=O)C2(C(=O)NO)CCOCC2)CC1)c1ccc(OC(F)(F)F)cc1` [Example A163]: the Ki was 1490 nM in test [1]; 225 nM in test [2]; 1630 nM in test [3]; 2.53 nM in test [4]; more than 10000 nM in test [5].
The corresponding values for `CCS(=O)(=O)c1ccc(N2CCN(S(=O)(=O)C3(C(=O)NO)CCOCC3)CC2)cc1` [Example A164] are more than 10000 nM, 63 nM, 2970 nM, 42.2 nM and more than 10000 nM.
The matching figures for `O=C(NO)C1(S(=O)(=O)N2CCC(c3ccc(CCC(F)(F)C(F)(F)F)cn3)CC2)CCN(c2cccnc2)CC1` [Example A165]: more than 10000 nM, 1.67 nM, 0.979 nM, 0.647 nM and 7210 nM.
The matching figures for `COCCCc1ccc(C2CCN(S(=O)(=O)C3(C(=O)NO)CCOCC3)CC2)nc1` [Example A166]: more than 10000 nM, 1.93 nM, 1.77 nM, 1.03 nM and 5060 nM.
Take `O=C(NO)C1(S(=O)(=O)N2CCC(c3ccc(CCC(F)(F)C(F)(F)F)cn3)CC2)CCN(c2ccccc2)CC1` [Example A167]: the inhibition constant Ki in test [1] was more than 10000 nM; in test [2], 3.04 nM; in test [3] it was 2.21 nM; in test [4], 1.54 nM; in test [5] it was more than 10000 nM.
On to `CC(F)(F)COc1ccc(C2CCN(S(=O)(=O)C3(C(=O)NO)CCOCC3)CC2)nc1` [Example A168], for which the inhibition constant Ki worked out at 2290 nM in test [1]; 1.7 nM in test [2]; 1.5 nM in test [3]; 1.72 nM in test [4]; 8570 nM in test [5].
Take `C/C(COc1ccc(C2CCN(S(=O)(=O)C3(C(=O)NO)CCOCC3)CC2)nc1)=N/O` [Example A169]: the Ki in test [1] was determined as 5370 nM; in test [2] it was 3.5 nM; in test [3] it was 10.2 nM; in test [4] it was 4.53 nM; in test [5] it was 9300 nM.
Consider `O=C(NO)C1(S(=O)(=O)N2CCC(c3ccc(CCC(F)(F)C(F)(F)F)cn3)CC2)CCNCC1` [Example A170], for which the inhibitory constant (Ki) in test [1] is more than 10000 nM; in test [2], 4.21 nM; in test [3] it was 4.01 nM; in test [4] it was 1.55 nM; in test [5] it was more than 10000 nM.
Take `COCC#Cc1ccc(C2CCN(S(=O)(=O)C3(C(=O)NO)CCOCC3)CC2)nc1` [Example A171]: the Ki in test [1] came out at 4180 nM; in test [2] it was 0.42 nM; in test [3] it was 0.54 nM; in test [4] it was 0.31 nM; in test [5] it was 604 nM.
The corresponding values for `O=C(NO)C1(S(=O)(=O)N2CCC(c3ccc(OCC4CC4)cn3)CC2)CCOCC1` [Example A172] are 4070 nM, 1.31 nM, 0.36 nM, 1.24 nM and 3620 nM.
The corresponding values for `O=C(NO)C1(S(=O)(=O)N2CCC(c3ccc(COCC(F)(F)F)cn3)CC2)CCOCC1` [Example A173] are more than 10000 nM, 7.59 nM, 1.84 nM, 1.91 nM and more than 10000 nM.
Turning to `O=C(NO)C1(S(=O)(=O)N2CCC(c3ccc(CCC(F)(F)C(F)(F)F)cn3)CC2)CCN(Cc2ccccc2)CC1` [Example A174], the Ki in test [1] is more than 10000 nM; in test [2] it was 1.31 nM; in test [3], 0.73 nM; in test [4], 0.52 nM; in test [5] it was 6520 nM.
